ChEMBL document CHEMBL1121501, “Synthesis and preliminary binding studies of 4,4-ditritio-(-)-nicotine of high specific activity” (J Med Chem, 1980)

Experiments:
[1] = species on record: Rattus norvegicus
Description: Compound was evaluated for the binding affinity at crude mitochondrial fraction of rat whole brain at 13 fmol of binding sites/mg of protein

[2] = species on record: Rattus norvegicus; remark: listed apart in the source
Description: Compound was evaluated for the binding affinity at crude mitochondrial fraction of rat whole brain at 7 nmol/mg of protein.

CN1CCC[C@H]1c1cccnc1
Ka [1]: 4.7e+06 M⁻¹
Ka [2]: 4400 M⁻¹
